Assay results: patent publication US20170252367A1, “PHARMACEUTICAL COMPOSITIONS AND METHODS RELATING TO INHIBITING FIBROUS ADHESIONS OR INFLAMMATORY DISEASE USING LOW SULPHATE FUCANS” (ARC Medical Devices, Inc., priority 2004, published 2017)
Counter-ions that a name gives are not always drawn.

Tested on: fibrous adhesions between the caecum and the sidewall
Test: Rat caecal-sidewall surgical adhesion model, drug loaded hyaluronic acid film (Example 1)
Type: in vivo
Settings: for inhibition of all adhesions (zero on the Total Adhesion Value scale) in at least one test animal: agent administered to the cecal-sidewall site
Text: In one embodiment, the efficacy of the given drug or drug combination can be assessed as a reduction of the average Total Adhesion Value (strength×area; “TAV”) of the drug or combination versus a given standard, for example a drug-loaded sodium hyaluronate film versus a sham or a sodium hyaluronate film alone in the rat cecal-sidewall model for surgical fibrous adhesions.
The rat caecal sidewall model of surgical adhesions was used to investigate the effect of administration of each agent discussed herein (hereafter referred to as the drug) for the prevention of post-surgical type of fibrous adhesions. In this model, rats were divided into groups of 4. After surgical trauma, the rats were either untreated, treated with crosslinked hyaluronic acid (HA) film, or crosslinked HA film containing drug at the following concentrations in the film (% w/w):
Animal Studies. […] Only animals that appeared grossly normal (i.e., showing a clean unruffled coat, bright clear eyes and an active posture) were used in the study. Animals were randomly assigned to treatment groups, weighed and anesthetized with isoflurane gas. The abdomen was shaved and cleaned with a skin-antibacterial cleanser (Steri-Stat 2%) and wiped with a chlorohexane soaked gauze. A nick was made in one of the tail veins to elicit a small amount of blood (<100 mL). A white blood cell count was performed on this blood sample. An antibiotic (40,000 IU/kg of depopenicillin) was injected into the right thigh and an analgesic (0.01 mg/kg of buprenorphine) was injected into the left thigh of each rat. A 4 cm incision was made in the skin beginning approximately 2 cm caudal to the linea alba while the muscle was tended with forceps. […] Scraping was in the opposite direction to which the blade was pointing. The scraped caecum was wrapped in saline-soaked gauze. Doynes were used to separate the peritoneal wall from the skin, and the peritoneal wall was inverted using the doynes to expose the inside of the wall. A rectangular injury roughly 1.2 cm by 1.8 cm was made by shallow incisions to the peritoneal wall. The top membrane and a layer of muscle tissue was removed using forceps. The caecum was stitched to the four corners of the rectangle using a 5-0 suture, and without tying off the top two stitches. A piece of film was placed onto the abraded rectangle and then the top two stitches were tied firmly. In the case of the untreated control group, no film was placed over the abraded site. The exposed organs were replaced in the abdomen in such a way as to prevent torsional stress on the intestines. […] A collar was placed around the neck of the animal to prevent it from interfering with the stitches. The rat was placed in a clean cage and warmed with a heating lamp until consciousness was regained.

Row | Compound | reduction in adhesion score versus control, one-tailed Student's t-test (p<0.05) (2% w/w in HA film) | inhibition of all adhesions (zero on the Total Adhesion Value scale) in at least one test animal | reduction in adhesion score versus control, one-tailed Student's t-test (p<0.05) (5% w/w in HA film)
1 | N.N.[Cl][Pt][Cl] [cisplatin, Cisplatin] | statistically significant | completely inhibited fibrous adhesions | –
2 | CC(=O)O[C@@]12CO[C@@H]1C[C@H](O)[C@@]1(C)C(=O)[C@H](O)C3=C(C)[C@@H](OC(=O)[C@H](O)[C@@H](NC(=O)OC(C)(C)C)c4ccccc4)C[C@@](O)([C@@H](OC(=O)c4ccccc4)[C@H]21)C3(C)C [docetaxel, Docetaxel] | – | completely inhibited fibrous adhesions | –
3 | CCOC(=O)[C@H](CCc1ccccc1)N[C@@H](C)C(=O)N1CCC[C@H]1C(=O)O [enalapril maleate, Enalapril Maleate] | – | – | statistically significant
4 | CC[C@H]1OC(=O)[C@H](C)[C@@H](O[C@H]2C[C@@](C)(OC)[C@@H](O)[C@H](C)O2)[C@H](C)[C@@H](O[C@@H]2O[C@H](C)C[C@H](N(C)C)[C@H]2O)[C@](C)(O)C[C@@H](C)C(=O)[C@H](C)[C@@H](O)[C@]1(C)O [erythromycin, Erythromycin] | – | – | statistically significant
5 | CN(Cc1cnc2nc(N)nc(N)c2n1)c1ccc(C(=O)N[C@@H](CCC(=O)O)C(=O)O)cc1 [methotrexate, Methotrexate] | – | completely inhibited fibrous adhesions | –
